Earlier results on one compound are cited in patent US20070269386A1, “New product and use and manufacture thereof” (priority 2006, published 2007).

In the data set the test system is adult.

SMILES strings stand for the structures.

Turning to `CN1CCCC1c1cccnc1` (stereo not shown) [nicotine, 3-(1-methyl-2-pyrrolidinyl)-pyridine], the “single dose that may kill an adult” value was “Approximately 40 milligrams”.
